Where two headings read alike, the source gives them in different places.
Molecular target: BRAF^V600E protein (Homo sapiens, UniProt P15056, V600E)
Experiment: HiBiT cellular BRAF V600E degradation assay
Assay type: cell-based
Conditions: for DC50: A375.10 cells (HiBiT tag knocked in at N-terminal of BRAF V600E), concentration at which 50% of total cellular BRAF V600E is degraded; for Emax: read-out: HiBit 24 h Emax
[1] = A375.10 cells, 24 h incubation, Emax = amount of residual protein remaining in the cell after compound treatment

Sequence of BRAF^V600E protein (P15056 whole entry V600E): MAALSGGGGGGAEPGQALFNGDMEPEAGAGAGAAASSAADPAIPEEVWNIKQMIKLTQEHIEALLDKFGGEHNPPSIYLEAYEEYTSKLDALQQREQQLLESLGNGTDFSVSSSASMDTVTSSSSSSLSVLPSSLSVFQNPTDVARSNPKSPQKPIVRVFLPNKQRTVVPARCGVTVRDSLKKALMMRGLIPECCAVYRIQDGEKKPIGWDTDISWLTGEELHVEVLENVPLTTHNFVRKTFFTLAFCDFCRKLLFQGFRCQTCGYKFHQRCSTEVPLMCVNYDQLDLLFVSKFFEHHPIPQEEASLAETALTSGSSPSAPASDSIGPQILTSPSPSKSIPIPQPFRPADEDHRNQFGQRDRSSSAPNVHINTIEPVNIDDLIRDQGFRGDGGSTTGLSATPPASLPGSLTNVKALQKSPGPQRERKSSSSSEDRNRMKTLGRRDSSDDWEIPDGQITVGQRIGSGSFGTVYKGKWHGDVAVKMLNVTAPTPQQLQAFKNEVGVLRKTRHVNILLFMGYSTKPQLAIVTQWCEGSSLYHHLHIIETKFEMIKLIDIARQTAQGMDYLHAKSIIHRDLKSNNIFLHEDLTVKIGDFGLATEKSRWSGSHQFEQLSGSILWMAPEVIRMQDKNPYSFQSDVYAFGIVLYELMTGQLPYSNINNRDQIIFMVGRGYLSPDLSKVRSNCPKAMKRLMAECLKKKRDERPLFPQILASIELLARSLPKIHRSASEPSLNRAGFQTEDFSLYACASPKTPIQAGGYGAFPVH

DC50 (24 h incubation)	Emax [1]	HiBit 24 h Emax [1]	SMILES	Emax
9.97 nM	3.79%	–	CCN(C)S(=O)(=O)Nc1ccc(F)c(C(=O)c2c[nH]c3ncc(-c4cnc(N5CCN(C(=O)CN6CCC(c7ccc(NC8CCC(=O)NC8=O)cc7)CC6)CC5)nc4)c(C)c23)c1F (stereo not drawn) [Example 65, 5-[2-[4-[2-[4-[4-[(2,6-dioxo-3-piperidyl)amino]phenyl]-1-piperidyl]acetyl]piperazin-1-yl]pyrimidin-5-yl]-3-[3-[[ethyl(methyl)sulfamoyl]amino]-2,6-difluoro-benzoyl]-4-methyl-1H-pyrrolo[2,3-b]pyridine]	–
3.06 nM	8.1%	–	CCN(C)S(=O)(=O)Nc1ccc(F)c(C(=O)c2c[nH]c3ncc(-c4cnc(N5CCN(C(=O)CN6CCC(c7ccc(NC8CCC(=O)NC8=O)cc7)CC6)CC5)nc4)c(F)c23)c1F (stereo not drawn) [Example 66, 5-[2-[4-[2-[4-[4-[(2,6-dioxo-3-piperidyl)amino]phenyl]-1-piperidyl]acetyl]piperazin-1-yl]pyrimidin-5-yl]-3-[3-[[ethyl(methyl)sulfamoyl]amino]-2,6-difluoro-benzoyl]-4-fluoro-1H-pyrrolo[2,3-b]pyridine]	–
12.3 nM	–	8.05%	CCN(C)S(=O)(=O)Nc1ccc(F)c(C(=O)c2c[nH]c3ncc(-c4ccc(N5CCN(C(=O)CN6CCC(c7ccc(O[C@H]8CCC(=O)NC8=O)cc7)CC6)CC5)nc4)cc23)c1F [Example 73, 5-[6-[4-[2-[4-[4-[[(3S)-2,6-dioxo-3-piperidyl]oxy]phenyl]-1-piperidyl]acetyl]piperazin-1-yl]-3-pyridyl]-3-[3-[[ethyl(methyl)sulfamoyl]amino]-2,6-difluoro-benzoyl]-1H-pyrrolo[2,3-b]pyridine]	–
32.5 nM	–	9.07%	CCN(C)S(=O)(=O)Nc1ccc(F)c(C(=O)c2c[nH]c3ncc(-c4ccc(N5CCN(C(=O)CN6CCC(c7ccc(O[C@@H]8CCC(=O)NC8=O)cc7)CC6)CC5)nc4)cc23)c1F [Example 74, 5-[6-[4-[2-[4-[4-[[(3R)-2,6-dioxo-3-piperidyl]oxy]phenyl]-1-piperidyl]acetyl]piperazin-1-yl]-3-pyridyl]-3-[3-[[ethyl(methyl)sulfamoyl]amino]-2,6-difluoro-benzoyl]-1H-pyrrolo[2,3-b]pyridine]	–
6.26 nM	11.6%	–	CCN(C)S(=O)(=O)Nc1ccc(F)c(C(=O)c2c[nH]c3ncc(-c4ccc(N5CCN(C(=O)CN6CCC(Nc7ccc8c(C9CCC(=O)NC9=O)nn(C)c8c7)CC6)CC5)nc4)cc23)c1F (stereo not drawn) [Example 75, 3-(2,6-dioxo-3-piperidyl)-6-[[1-[2-[4-[5-[3-[3-[[ethyl(methyl)sulfamoyl]amino]-2,6-difluoro-benzoyl]-1H-pyrrolo[2,3-b]pyridin-5-yl]-2-pyridyl]piperazin-1-yl]-2-oxo-ethyl]-4-piperidyl]amino]-1-methyl-indazole]	–
7.81 nM	14.2%	–	CCN(C)S(=O)(=O)Nc1ccc(F)c(C(=O)c2c[nH]c3ncc(-c4ccc(N5CCN(C(=O)CC6(O)CCN(c7ccc(NC8CCC(=O)NC8=O)cc7)CC6)CC5)nc4)cc23)c1F (stereo not drawn) [Example 76, 5-[6-[4-[2-[1-[4-[(2,6-dioxo-3-piperidyl)amino]phenyl]-4-hydroxy-4-piperidyl]acetyl]piperazin-1-yl]-3-pyridyl]-3-[3-[[ethyl(methyl)sulfamoyl]amino]-2,6-difluoro-benzoyl]-1H-pyrrolo[2,3-b]pyridine]	–
9.89 nM	23.3%	–	CCN(C)S(=O)(=O)Nc1ccc(F)c(C(=O)c2c[nH]c3ncc(-c4ccc(N5CCN(C(=O)CC6(O)CCN(c7ccc(NC8CCC(=O)NC8=O)cn7)CC6)CC5)nc4)cc23)c1F (stereo not drawn) [Example 78, 5-[6-[4-[2-[1-[5-[(2,6-dioxo-3-piperidyl)amino]-2-pyridyl]-4-hydroxy-4-piperidyl]acetyl]piperazin-1-yl]-3-pyridyl]-3-[3-[[ethyl(methyl)sulfamoyl]amino]-2,6-difluoro-benzoyl]-1H-pyrrolo[2,3-b]pyridine]	–
2.13 nM	9.51%	–	CCN(C)S(=O)(=O)Nc1ccc(F)c(C(=O)c2c[nH]c3ncc(-c4ccc(N5CCN(C(=O)CC6(O)CCN(c7ccc(NC8CCC(=O)NC8=O)cc7F)CC6)CC5)nc4)cc23)c1F (stereo not drawn) [Example 79, 5-[6-[4-[2-[1-[4-[(2,6-dioxo-3-piperidyl)amino]-2-fluoro-phenyl]-4-hydroxy-4-piperidyl]acetyl]piperazin-1-yl]-3-pyridyl]-3-[3-[[ethyl(methyl)sulfamoyl]amino]-2,6-difluoro-benzoyl]-1H-pyrrolo[2,3-b]pyridine]	–
2.97 nM	9.93%	–	CCN(C)S(=O)(=O)Nc1ccc(F)c(C(=O)c2c[nH]c3ncc(-c4ccc(N5CCN(C(=O)CC6(O)CCN(c7ncc(NC8CCC(=O)NC8=O)cc7F)CC6)CC5)nc4)cc23)c1F (stereo not drawn) [Example 80, 5-[6-[4-[2-[1-[5-[(2,6-dioxo-3-piperidyl)amino]-3-fluoro-2-pyridyl]-4-hydroxy-4-piperidyl]acetyl]piperazin-1-yl]-3-pyridyl]-3-[3-[[ethyl(methyl)sulfamoyl]amino]-2,6-difluoro-benzoyl]-1H-pyrrolo[2,3-b]pyridine]	–
3.14 nM	–	9.62%	CCN(C)S(=O)(=O)Nc1ccc(F)c(C(=O)c2c[nH]c3ncc(-c4ccc(N5CCN(C(=O)CN6CCC(c7ccc(NC8CCC(=O)NC8=O)cc7)CC6)CC5)cc4)cc23)c1F (stereo not drawn) [Example 84, 5-[4-[4-[2-[4-[4-[(2,6-dioxo-3-piperidyl)amino]phenyl]-1-piperidyl]acetyl]piperazin-1-yl]phenyl]-3-[3-[[ethyl(methyl)sulfamoyl]amino]-2,6-difluoro-benzoyl]-1H-pyrrolo[2,3-b]pyridine]	–
4.29 nM	11.8%	–	CCN(C)S(=O)(=O)Nc1ccc(F)c(C(=O)c2c[nH]c3ncc(-c4ccc(N5CCN(C(=O)CC6(O)CCN(c7ccc(NC8CCC(=O)NC8=O)cc7)CC6)CC5)cc4)cc23)c1F (stereo not drawn) [Example 86, 5-[4-[4-[2-[1-[4-[(2,6-dioxo-3-piperidyl)amino]phenyl]-4-hydroxy-4-piperidyl]acetyl]piperazin-1-yl]phenyl]-3-[3-[[ethyl(methyl)sulfamoyl]amino]-2,6-difluoro-benzoyl]-1H-pyrrolo[2,3-b]pyridine]	–
13.3 nM	9.64%	–	CCN(C)S(=O)(=O)Nc1ccc(F)c(C(=O)c2c[nH]c3ncc(-c4ccc(N5CCN(C(=O)CC6(O)CCN(c7ccc(NC8CCC(=O)NC8=O)cc7F)C6)CC5)cc4)cc23)c1F (stereo not drawn) [Example 87, 5-[4-[4-[2-[1-[4-[(2,6-dioxo-3-piperidyl)amino]-2-fluoro-phenyl]-3-hydroxy-pyrrolidin-3-yl]acetyl]piperazin-1-yl]phenyl]-3-[3-[[ethyl(methyl)sulfamoyl]amino]-2,6-difluoro-benzoyl]-1H-pyrrolo[2,3-b]pyridine]	–
15.7 nM	22.2%	–	CCN(C)S(=O)(=O)Nc1ccc(F)c(C(=O)c2c[nH]c3ncc(-c4ccc(N5CCN(C(=O)CC6(O)CCN(c7ccc(NC8CCC(=O)NC8=O)cn7)CC6)CC5)cc4)cc23)c1F (stereo not drawn) [Example 88, 5-[4-[4-[2-[1-[5-[(2,6-dioxo-3-piperidyl)amino]-2-pyridyl]-4-hydroxy-4-piperidyl]acetyl]piperazin-1-yl]phenyl]-3-[3-[[ethyl(methyl)sulfamoyl]amino]-2,6-difluoro-benzoyl]-1H-pyrrolo[2,3-b]pyridine]	–
1.4 nM	8.6%	–	CCN(C)S(=O)(=O)Nc1ccc(F)c(C(=O)c2c[nH]c3ncc(-c4ccc(N5CCN(C(=O)CC6(O)CCN(c7ccc(NC8CCC(=O)NC8=O)cc7F)CC6)CC5)cc4)cc23)c1F (stereo not drawn) [Example 89, 5-[4-[4-[2-[1-[4-[(2,6-dioxo-3-piperidyl)amino]-2-fluoro-phenyl]-4-hydroxy-4-piperidyl]acetyl]piperazin-1-yl]phenyl]-3-[3-[[ethyl(methyl)sulfamoyl]amino]-2,6-difluoro-benzoyl]-1H-pyrrolo[2,3-b]pyridine]	–
2.13 nM	7.44%	–	CCN(C)S(=O)(=O)Nc1ccc(F)c(C(=O)c2c[nH]c3ncc(-c4ccc(N5CCN(C(=O)CC6(O)CCN(c7ncc(NC8CCC(=O)NC8=O)cc7F)CC6)CC5)cc4)cc23)c1F (stereo not drawn) [Example 90, 5-[4-[4-[2-[1-[5-[(2,6-dioxo-3-piperidyl)amino]-3-fluoro-2-pyridyl]-4-hydroxy-4-piperidyl]acetyl]piperazin-1-yl]phenyl]-3-[3-[[ethyl(methyl)sulfamoyl]amino]-2,6-difluoro-benzoyl]-1H-pyrrolo[2,3-b]pyridine]	–
22.9 nM	4.78%	–	CCN(C)S(=O)(=O)Nc1ccc(F)c(C(=O)c2c[nH]c3ncc(-c4ccc(C5=CCN(C(=O)CC6CCN(c7ccc(NC8CCC(=O)NC8=O)cc7)CC6)CC5)cc4)cc23)c1F (stereo not drawn) [Example 92, 5-[4-[1-[2-[1-[4-[(2,6-dioxo-3-piperidyl)amino]phenyl]-4-piperidyl]acetyl]-3,6-dihydro-2H-pyridin-4-yl]phenyl]-3-[3-[[ethyl(methyl)sulfamoyl]amino]-2,6-difluoro-benzoyl]-1H-pyrrolo[2,3-b]pyridine]	–

SMILES	DC50 (24 h incubation)	Emax [1]	HiBit 24 h Emax [1]	Emax
CCN(C)S(=O)(=O)Nc1ccc(F)c(C(=O)c2c[nH]c3ncc(-c4cnc(N5CC6(CN(C(=O)CN7CCC(c8ccc(NC9CCC(=O)NC9=O)cc8)CC7)C6)C5)nc4)cc23)c1F (stereo not drawn) [Example 64, 5-[2-[2-[2-[4-[4-[(2,6-dioxo-3-piperidyl)amino]phenyl]-1-piperidyl]acetyl]-2,6-diazaspiro[3.3]heptan-6-yl]pyrimidin-5-yl]-3-[3-[[ethyl(methyl)sulfamoyl]amino]-2,6-difluoro-benzoyl]-1H-pyrrolo[2,3-b]pyridine]	7.21 nM	9.33%	–	–
CCN(C)S(=O)(=O)Nc1ccc(F)c(C(=O)c2c[nH]c3ncc(-c4cnc(N5CCN(C(=O)CN6CCC(c7ccc(NC8CCC(=O)NC8=O)cc7)CC6)CC5)c(C#N)c4)cc23)c1F (stereo not drawn) [Example 82, 5-[5-cyano-6-[4-[2-[4-[4-[(2,6-dioxo-3-piperidyl)amino]phenyl]-1-piperidyl]acetyl]piperazin-1-yl]-3-pyridyl]-3-[3-[[ethyl(methyl)sulfamoyl]amino]-2,6-difluoro-benzoyl]-1H-pyrrolo[2,3-b]pyridine]	7.57 nM	–	–	7.6%

Reference: US12559492B2, “BRAF degraders” (C4 Therapeutics, Inc., priority 2020, dated 2026)
